Results reported in ChEMBL document CHEMBL4627316, “Design and synthesis of potent PAR-1 antagonists based on vorapaxar” (Bioorg Med Chem Lett, 2020).

Legend:
[1] = target: T1, Proteinase-activated receptor 1 (Homo sapiens) (UniProt P25116); assay: Antagonist activity at human PAR1 expressed in KNRK cells assessed as inhibition of agonist-induced intracellular calcium mobilization at 10^-5 M by fluorimetric assay relative to control; type: functional, cell-based
T1 sequence (whole entry): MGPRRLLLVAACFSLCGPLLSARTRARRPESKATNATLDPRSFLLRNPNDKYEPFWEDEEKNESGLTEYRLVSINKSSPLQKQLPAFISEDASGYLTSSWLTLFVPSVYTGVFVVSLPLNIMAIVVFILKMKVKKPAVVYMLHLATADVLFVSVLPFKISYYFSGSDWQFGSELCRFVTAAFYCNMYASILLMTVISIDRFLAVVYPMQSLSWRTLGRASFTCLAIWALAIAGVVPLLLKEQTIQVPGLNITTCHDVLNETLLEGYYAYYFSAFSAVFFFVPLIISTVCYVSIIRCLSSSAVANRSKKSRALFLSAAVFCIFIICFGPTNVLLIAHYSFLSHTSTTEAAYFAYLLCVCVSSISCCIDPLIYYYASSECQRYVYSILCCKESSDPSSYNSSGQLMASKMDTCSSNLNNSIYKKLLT

[2] = target: T1, Proteinase-activated receptor 1 (Homo sapiens); assay: Antagonist activity at human PAR1 expressed in KNRK cells assessed as inhibition of agonist-induced intracellular calcium mobilization at 10^-6 M by fluorimetric assay relative to control; type: functional, cell-based
[3] = target: T1, Proteinase-activated receptor 1 (Homo sapiens); assay: Antagonist activity at human PAR1 expressed in KNRK cells assessed as inhibition of agonist-induced intracellular calcium mobilization at 10^-7 M by fluorimetric assay relative to control; type: functional, cell-based
[4] = target: T2, Proteinase-activated receptor 1 (Homo sapiens, UniProt P25116); assay: Antagonist activity at human PAR1 expressed in KNRK cells assessed as inhibition of agonist-induced intracellular calcium mobilization by fluorimetric assay; type: functional, cell-based
T2 sequence (P25116 whole entry): T1 sequence (whole entry)

[5] = Oral bioavailability in Sprague-Dawley rat at 5 mg/kg; type: ADME, organism-based; settings: in vivo
[6] = Cmax in Sprague-Dawley rat at 5 mg/kg, po or 1 mg/kg, iv; type: ADME, organism-based; settings: in vivo
[7] = Ratio of drug concentration in brain to plasma in Sprague-Dawley rat at 5 mg/kg, po measured at 8 hrs; type: ADME, organism-based; settings: read-out: BPR
[8] = AUC (0 to infinity) in Sprague-Dawley rat at 5 mg/kg, po or 1 mg/kg, iv; type: ADME, organism-based; settings: in vivo
[9] = Half life in Sprague-Dawley rat at 5 mg/kg, po or 1 mg/kg, iv; type: ADME, organism-based; settings: in vivo

Row | inhibition [1] [%] | inhibition [2] [%] | inhibition [3] [%] | IC50 [4] [nM] | bioavailability [5] [%] | Cmax [6] [ng/mL] | Kp at 8 h [7] | AUC(0-inf) [8] [ng·h/mL] | half-life [9] [min] | Compound
1 | 99 | 71 | 44 | 180 | 98 | 580 | 0.38 | 6390 | 384 | C[C@H]1OC(=O)[C@@H]2C[C@@H]3C[C@H](NCC#N)CC[C@H]3[C@H](/C=C/c3ccc(-c4cccc(F)c4)cn3)[C@H]12
2 | 100 | 61 | 23 | 1100 | 70 | 1140 | 0.68 | 5000 | 174 | C[C@H]1OC(=O)[C@]2(NCC(=O)O)C[C@@H]3CCCC[C@H]3[C@H](/C=C/c3ccc(-c4cccc(F)c4)cn3)[C@H]12
3 | 101 | 81 | -5 | – | – | – | – | – | – | CCOC(=O)CN[C@@]12C[C@@H]3CCCC[C@H]3[C@H](/C=C/c3ccc(-c4cccc(F)c4)cn3)[C@@H]1[C@@H](C)OC2=O
4 | 99 | 92 | -4 | 760 | 34 | 2310 | 0.35 | 5140 | 510 | C[C@H]1OC(=O)[C@]2(NCC#N)C[C@@H]3CCCC[C@H]3[C@H](/C=C/c3ccc(-c4cccc(F)c4)cn3)[C@H]12

Further lines, the compound ahead of its results:

Row | Compound | inhibition [1] [%] | inhibition [2] [%] | inhibition [3] [%] | IC50 [4] [nM] | bioavailability [5] [%] | Cmax [6] [ng/mL] | Kp at 8 h [7] | AUC(0-inf) [8] [ng·h/mL] | half-life [9] [min]
5 | CCOC(=O)N[C@@H]1CC[C@@H]2[C@@H](C1)C[C@H]1C(=O)O[C@H](C)[C@H]1[C@H]2/C=C/c1ccc(-c2cccc(F)c2)cc1 | 42 | 26 | -7 | – | – | – | – | – | –
6 | Cc1ccnc(N[C@@H]2CC[C@@H]3[C@@H](C2)C[C@H]2C(=O)O[C@H](C)[C@H]2[C@H]3/C=C/c2ccc(-c3cccc(F)c3)cn2)n1 | 101 | 98 | 20 | 610 | 23 | 110 | 1.13 | 860 | 402
7 | C[C@H]1OC(=O)[C@@H]2C[C@@H]3C[C@H](NCC(=O)O)CC[C@H]3[C@H](/C=C/c3ccc(-c4cccc(F)c4)cn3)[C@H]12 | 48 | 34 | 13 | – | – | – | – | – | –
8 | C[C@H]1OC(=O)[C@@H]2C[C@@H]3C[C@H](Nc4nc5ccccc5o4)CC[C@H]3[C@H](/C=C/c3ccc(-c4cccc(F)c4)cn3)[C@H]12 | 81 | 28 | 3 | – | – | – | – | – | –
9 | CCOC(=O)N[C@@H]1CC[C@@H]2[C@@H](C1)C[C@H]1C(=O)O[C@H](C)[C@H]1[C@H]2/C=C/c1ccc(-c2ccccn2)cc1 | 66 | 40 | 5 | 550 | 44 | 710 | 0.54 | 7100 | 300
10 | CCOC(=O)N[C@@H]1CC[C@@H]2[C@@H](C1)C[C@H]1C(=O)O[C@H](C)[C@H]1[C@H]2/C=C/c1ccc(-c2cccc(F)c2)cn1 [VORAPAXAR] | 101 | 99 | 25 | 250 | 94 | 440 | 1.08 | 3500 | 240
